For experiment [1] the following is noted: sucrose per unit concentration Brix 1 = 1, cited from earlier work.
The target of experiment [2] is T1, sweet taste receptor (T1R2/T1R3) (Homo sapiens, UniProt Q7RTX0+Q8TE23).
T1 construct: endogenous in cells; host or cells: taste cells in the mouths of 3 trained human panelists (in vivo spitting test)
T1 sequence (Q8TE23 20-839): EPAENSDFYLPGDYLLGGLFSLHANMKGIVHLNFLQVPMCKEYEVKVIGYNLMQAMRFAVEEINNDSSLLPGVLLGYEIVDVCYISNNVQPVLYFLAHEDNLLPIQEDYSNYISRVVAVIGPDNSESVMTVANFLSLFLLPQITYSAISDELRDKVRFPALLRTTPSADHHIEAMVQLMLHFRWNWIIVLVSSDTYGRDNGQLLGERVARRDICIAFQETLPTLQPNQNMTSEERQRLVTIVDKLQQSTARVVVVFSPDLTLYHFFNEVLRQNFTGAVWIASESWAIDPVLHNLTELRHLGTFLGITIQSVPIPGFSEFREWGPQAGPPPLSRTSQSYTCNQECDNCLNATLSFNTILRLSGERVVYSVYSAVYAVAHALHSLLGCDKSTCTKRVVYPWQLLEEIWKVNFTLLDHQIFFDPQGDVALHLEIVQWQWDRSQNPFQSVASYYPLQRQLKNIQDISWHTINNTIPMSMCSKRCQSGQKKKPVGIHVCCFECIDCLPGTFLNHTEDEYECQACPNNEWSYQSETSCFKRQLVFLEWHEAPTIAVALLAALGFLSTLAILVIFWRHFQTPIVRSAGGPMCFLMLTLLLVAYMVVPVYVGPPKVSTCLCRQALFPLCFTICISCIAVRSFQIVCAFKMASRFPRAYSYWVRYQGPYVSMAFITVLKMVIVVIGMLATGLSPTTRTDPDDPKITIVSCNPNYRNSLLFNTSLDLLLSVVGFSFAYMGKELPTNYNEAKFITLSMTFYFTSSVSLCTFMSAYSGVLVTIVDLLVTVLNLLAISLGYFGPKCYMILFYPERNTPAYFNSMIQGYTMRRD
T1 sequence (Q7RTX0 21-852): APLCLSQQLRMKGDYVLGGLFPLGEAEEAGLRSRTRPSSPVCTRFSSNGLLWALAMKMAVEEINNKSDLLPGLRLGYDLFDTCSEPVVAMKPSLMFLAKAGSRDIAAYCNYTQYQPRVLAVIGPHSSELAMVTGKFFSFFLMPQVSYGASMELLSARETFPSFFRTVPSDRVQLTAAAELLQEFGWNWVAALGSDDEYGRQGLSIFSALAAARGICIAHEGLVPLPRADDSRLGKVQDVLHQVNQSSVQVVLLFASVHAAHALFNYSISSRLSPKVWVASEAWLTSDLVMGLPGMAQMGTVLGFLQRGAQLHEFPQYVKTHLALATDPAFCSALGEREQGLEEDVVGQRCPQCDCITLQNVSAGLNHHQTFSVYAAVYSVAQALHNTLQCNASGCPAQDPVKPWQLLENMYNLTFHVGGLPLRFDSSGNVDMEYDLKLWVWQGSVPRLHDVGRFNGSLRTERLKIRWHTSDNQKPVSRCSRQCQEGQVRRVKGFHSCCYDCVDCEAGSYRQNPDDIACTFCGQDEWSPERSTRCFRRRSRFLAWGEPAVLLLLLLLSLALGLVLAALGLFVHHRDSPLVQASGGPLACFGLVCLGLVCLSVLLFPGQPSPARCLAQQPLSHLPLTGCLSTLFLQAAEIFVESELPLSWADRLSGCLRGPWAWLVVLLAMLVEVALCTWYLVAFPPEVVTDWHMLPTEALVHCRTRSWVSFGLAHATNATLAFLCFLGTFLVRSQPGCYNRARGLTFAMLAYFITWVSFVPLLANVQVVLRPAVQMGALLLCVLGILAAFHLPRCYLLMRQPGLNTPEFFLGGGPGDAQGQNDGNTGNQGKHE
As to the kind of experiment: Sensory evaluation of sweetness intensity (VAS) in the co-presence of sweet taste receptor inhibitor lactisole (Example 5). The following applies: for Sweetness intensity residual ratio (%) with addition of 100 ppm lactisole: lactisole-free solution = 100%, sucrose 8 w/v %, sucralose 149 ppm, D- or L-arabinose 13.3 w/v %, VAS, average of n=3. The class given is in vivo. The text has this:
Whether or not a certain sweet substance can trigger a sweetness response even if a sweetness response through the sweet taste receptor T1R2/T1R3 is inhibited may be determined by, for instance, measuring, by sensory evaluation or cell assay, the sweetness intensity of a solution (control solution), in which only the above sweet substance has been dissolved, and the sweetness intensity (remaining sweetness intensity) of a solution (test solution), in which a sweet taste receptor T1R2/T1R3 inhibitor (e.g., lactisole, gymnemic acid) is added for inhibiting a sweetness response through the sweet taste receptor T1R2/T1R3 to the control solution; and by comparing the sweetness intensity of the control solution and the sweetness intensity of the test solution.
The evaluation was carried out by those (3 persons) who received sensory trainings as panelists. […] Additionally, solutions having the same composition as sample solutions 1, 2, 3, and 4 except that lactisole was not added were used as control solutions 1, 2, 3, and 4. The sensory evaluation was carried out by spitting test. The sweetness intensity was rated by the VAS scale and calculated with the intensity of a solution to which lactisole was not added being 100% and the sweetness intensity of a solution to which lactisole was added as a relative value (%). The sweetness inhibitory effect by lactisole was verified by this.

Experiment [3] in a line: Degree of sweetness relative to sucrose. The following applies: value used to design the sample solutions of Example 5. The text has this: The “sweetness intensity” means an intensity of sweetness of a substance. […] A numerical value obtained by multiplying the degree of sweetness by a concentration Brix value of glucose is the sweetness intensity of glucose in terms of sucrose. Thus, when a concentration of glucose in terms of sucrose is Brix 1.5, the sweetness intensity of glucose is 0.65×1.5=0.975. The sweetness intensity of a sweetener in terms of sucrose can be calculated from a degree of sweetness shown in the following table or a value of a known degree of sweetness.
For example, when the sweetness intensity of sucrose per unit concentration Brix 1 is defined as a degree of sweetness of 1, a degree of sweetness of rebaudioside D is about 200 to 250 (median value 225), a degree of sweetness of rebaudioside M is about 200 to 260 (median value 230), a degree of sweetness of rebaudioside B is about 325, a degree of sweetness of rebaudioside A is about 200 to 300 (median value 250), a degree of sweetness of rebaudioside N is about 200 to 250 (median value 225), a degree of sweetness of rebaudioside O is about 200 to 250 (median value 225), a degree of sweetness of rebaudioside E is about 70 to 80 (median value 75), a degree of sweetness of a Luo han guo extract (containing 40% of Mog V) is about 110 to 150 (median value 130), a degree of sweetness of mogroside V is about 240 to 300 (median value 270), and a degree of sweetness of thaumatin is about 2,000, and a degree of sweetness of brazzein is about 500 to 2,000 (median value 1,250). The numerical value obtained by multiplying these degrees of sweetness by a concentration (w/v % (considered to be the same as w/w % in the case of a beverage)) of the high-intensity sweetener in a fruit juice beverage is a sweetness intensity of the high-intensity sweetener. The relative ratio in degrees of sweetness of various sweeteners to the degree of sweetness of 1 of sucrose can be determined from a known sugar sweetness conversion table, and the like. In the present description, when a degree of sweetness is shown in a numerical value range, the median value may be used. However, a sweetener having different values in a degree of sweetness by literatures, a relative ratio in a degree of sweetness to the degree of sweetness of 1 of sucrose can be defined by a sensory test. Examples of such a sensory test include a method in which samples were prepared by adding sucrose having a sweetness intensity of Brix 3.0 to 5.0 in 0.5 increments to pure water, and of which a sucrose-added sample having a sweetness intensity equal to an aqueous solution of a sweetener in a predetermined concentration is selected.
Additionally, for a sweetener with a variable degree of sweetness as a sweetness intensity increases, degrees of sweetness in different concentrations are actually measured and plotted whereby a degree of sweetness in a predetermined concentration may be calculated from the obtained approximate curve.

A short description of experiment [4]: Basic taste quality sensory evaluation by trained panelists, spitting test, against 6% sucrose control (Example 1). The class given is in vivo, human. The conditions noted are these: scale −3 to 3, 0 = no difference from 6% sucrose control; D-allulose 8.57 w/v %, D-arabinose 10 w/v % in pure water; 4 panelists. As for the experimental part: In each evaluation item, the rating on a scale of −3 point to 3 point was performed, with the case where there is no difference from the control solution being 0. Quicker in sweetness onset, higher sweetness intensity, shorter lingering sweet aftertaste, lower bitterness intensity, and shorter lingering bitter aftertaste compared to the control were rated near 3 points. Slower in sweetness onset, lower sweetness intensity, longer lingering sweet aftertaste, higher bitterness intensity, and longer lingering bitter aftertaste compared to the control were rated near −3 points. That is, the closer to 0 point, the closer to the control. The evaluation was carried out by those (4 persons) who received sensory trainings as panelists by spitting test. The amount of a sweet substance contained in each sample solution was adjusted to be equal to the control solution on the calculation. […] The energy (kcal/100 ml) was calculated from the amount of the sweetener added.

Read-outs that look alike come from different tables or passages of the source.

On to `O=C[C@H](O)[C@H](O)[C@H](O)[C@H](O)CO` [Allose], for which the Degree of sweetness in experiment [1] (Table 1) is listed as 0.8.

Consider `O=C[C@H](O)[C@@H](O)[C@@H](O)CO` [L-Arabinose], for which the “remaining sweetness intensity when 100 ppm of lactisole was added, compared with sucrose” value in experiment [2] (100 ppm lactisole) is “equal to or more than that of sucrose”. For the same molecule, the “Sweetness intensity residual ratio (%) with addition of 100 ppm lactisole” value (“Sweetness intensity residual ratio (%)” for short) in experiment [2] was determined as 34.43%. Further, the “sweetness intensity, times as much as that of sucrose” value in experiment [3] turned out to be 0.6 times.

For `OC[C@H]1O[C@H](O[C@H]2[C@H](O)[C@@H](O)[C@H](O)O[C@@H]2CO)[C@H](O)[C@@H](O)[C@@H]1O` [Maltose], the Degree of sweetness in experiment [1] (Table 1) is on record as 0.4.

As to `OC[C@H]1O[C@H](O[C@]2(CCl)O[C@H](CCl)[C@@H](O)[C@@H]2O)[C@H](O)[C@@H](O)[C@H]1Cl` [Sucralose], in experiment [2], the “Sweetness intensity residual ratio (%)” value was determined as 8.99%. Besides, the “sweetness intensity, times as much as that of sucrose” value in experiment [3] came out at 538.54 times.

On to `OC[C@H]1O[C@@](CO)(O[C@H]2O[C@H](CO)[C@@H](O)[C@H](O)[C@H]2O)[C@@H](O)[C@@H]1O` [Sucrose], for which the Degree of sweetness in experiment [1] (Table 1) is reported as 1. In experiment [2], the “Sweetness intensity residual ratio (%)” value worked out at 29.05%. Also, in experiment [4], the Bitterness intensity was 0 point, the Lingering bitter aftertaste was 0 point, the Lingering sweet aftertaste is given as 0 point and the “Quickness in sweetness onset” value came out at 0 point. For the same molecule, the Sweetness intensity in experiment [4] is 0 point.

As to `O=C(CO)[C@@H](O)[C@@H](O)[C@H](O)CO` [Tagatose], the Degree of sweetness in experiment [1] (Table 1) is reported as 0.9.

On to rebaudioside B, for which the Degree of sweetness result in experiment [1] (high-intensity sweeteners) was “about 325”.

Take thaumatin: the Degree of sweetness entry in experiment [1] (high-intensity sweeteners) is given as “about 2,000”.

The values are drawn from patent US20240122212A1 (SUNTORY HOLDINGS LIMITED, priority 2020, published 2024).
